Entries after “also recorded” stand apart in the source; their conditions may differ.

The target in one test is T1, BRD4 and PKC (α-isoform) (Homo sapiens, UniProt O60885+P17252).
T1 construct: BRD4-His tag (BD1 and BD2 (49-460))(31045); purchased BPS Bioscience (BRD4); SignalChem (PKCα) 31045; P61-18G
Put plainly: AlphaScreen ternary complex formation. The test is classed as binding. On the procedure: A similar approach was followed to determine the PHICS2 induced ternary complex formation between PKC: PHICS2: BRD4-GST (BD1 and BD2). Initially, concentration series of PHICS (2.1, 2.2, 2.3, 2.4 and 2.5) with different linkers and (R)-PHICS2.3 with DMSO control were prepared in a white opaque 384-well microplate using a dilution assay buffer with 1% DMSO in the final mixture. Then 10 nM PKC-GST and 100 nM BRD4 (6×His tag) were added to the mixture and incubated at room temperature. Following 1 hr incubation, acceptor beads and donor beads were added to the system.
(In general: In Alpha technology, singlet oxygen from a donor bead excites a nearby acceptor bead.)

The next test has as its target T2, BRD4 (PKCα) (Homo sapiens, UniProt O60885+P17252).
T2 construct: BRD4-GST (BD1 and BD2 (49-460))(31044); GST; purchased BPS Bioscience (BRD4); SignalChem (PKCα) 31044; P61-18G
Put plainly: BRD4 phosphorylation by PKC, western blot. The format is biochemical. As for the experimental part:
Kinase reaction was performed using 1 μM PHICS (2.1, 2.2, 2.3, 2.4, 2.5 and (R)-2.3), 50 nM PKC, 700 nM BRD4-GST and 50 μM ATP for 1 hr at room temperature before quenching with SDS loading buffer. Proteins were resolved in NuPAGE 4-12% Bis-Tris protein gels and transferred to a PVDF membrane. After incubation of the membrane with the blocking buffer, phospho-PKC substrate motif [(R/K)XpSX(R/K)] (Cell Signaling, Cat #6967) (1:1000) primary antibody was added to the membrane and further incubated at 4° C. for overnight. HRP-conjugated secondary antibodies or IRDye 800CW/IRDye 680RD secondary antibodies were used to visualize the protein bands.
(§1) Similar approaches were followed to determine the phosphorylation of BRD4 with different AMPK and PKC isoforms as well as phosphorylation of different BRD proteins.
(In general: Immunoblotting shows a protein as a band on a membrane.)

In the next test the target is T3, BRD4 (PKC) (Homo sapiens, UniProt O60885+P17252).
T3 construct: BRD4-GST (BD1 and BD2 (49-460))(31044); GST; purchased BPS Bioscience (BRD4); SignalChem (PKCα) 31044; P61-18G
Put plainly: ADP-Glo turnover assay, PKC + BRD4-GST. The format is biochemical. The settings on record: limiting PKC 50 nM; iPHICS2 as negative control. As for the experimental part:
The same protocol was followed for PHICS2.3 as well. Initially, 1 μM of PHICS2.3 and (R)-PHICS2.3 were prepared in a 96 well plate (white, flat bottom) using kinase assay buffer and incubated with 50 nM PKC and 700 nM BRD4-GST (BD1 and BD2) for 1 hr at room temperature in the presence of 50 μM ATP before adding ADP-Glo reagents.

For the next test, the target named is T4, BRD4 (PKCβI) (Homo sapiens, UniProt O60885+P05771).
T4 construct: BRD4-GST (BD1 and BD2 (49-460))(31044); purchased SignalChem (PKC); BPS Bioscience (BRD4) P62-18G; 31044
Put plainly: BRD4 phosphorylation by PKC isoform, western blot. The format is biochemical.
From the text: as §1

For another test, the target named is T5, BRD4 (PKCβII) (Homo sapiens, UniProt O60885+P05771).
T5 construct: BRD4-GST (BD1 and BD2 (49-460))(31044); purchased SignalChem (PKC); BPS Bioscience (BRD4) P63-18G; 31044
Put plainly: BRD4 phosphorylation by PKC isoform, western blot. The format is biochemical.
From the text: as §1

Another test addresses T6, BRD4 (PKCγ) (Homo sapiens, UniProt O60885+P05129).
T6 construct: BRD4-GST (BD1 and BD2 (49-460))(31044); purchased SignalChem (PKC); BPS Bioscience (BRD4) P66-18G; 31044
The experiment in a line: BRD4 phosphorylation by PKC isoform, western blot. The test is classed as biochemical.
From the text: as §1

The target in another test is T7, BRD4 (PKCδ) (Homo sapiens, UniProt O60885+Q05655).
T7 construct: BRD4-GST (BD1 and BD2 (49-460))(31044); purchased SignalChem (PKC); BPS Bioscience (BRD4) P64-18G; 31044
Put plainly: BRD4 phosphorylation by PKC isoform, western blot. The test is classed as biochemical.
From the text: as §1

Test [1] deals with T8, ABL (Homo sapiens, UniProt P00519). The experiment in a line: ADP-Glo ABL activation. The test is classed as biochemical. An excerpt:
To expand the scope of PHICS beyond the Ser/Thr kinases (AMPK or PKC), Applicants will develop PHICS using the Abelson (ABL) family that are nonreceptor tyrosine kinases with SH3-SH2-TK ([…]) domains (42, 43). An autoinhibitory mechanism involving intramolecular interactions stabilizes this kinase in a “locked” conformation, inhibiting kinase activity unless the SH3 domain interactions are disrupted by binding of an activator. The SH2 domain of ABL is responsible for substrate specificity: if the SH2 domain is exchanged for another protein's SH2 domain, then substrate specificity is altered (43). […] Both DPH and DPH with linker (FIG. 83B) activated ABL in […] (FIG. 83C).
Background: ADP-Glo first removes unused ATP, then detects ADP through luciferase.

Test [2] deals with T8, ABL. The settings on record: cited from earlier work.
The target in another test is PKCalpha (Homo sapiens, UniProt P17252). The settings on record: cited from earlier work.
The next test concerns the target PKC beta (Homo sapiens, UniProt P05771). The settings on record: cited from earlier work.
The next test has as its target PKC delta (Homo sapiens, UniProt Q05655). The settings on record: cited from earlier work.
The target in another test is T9, PKC epsilon (Homo sapiens, UniProt Q02156).
T9 sequence (Q02156 1-737): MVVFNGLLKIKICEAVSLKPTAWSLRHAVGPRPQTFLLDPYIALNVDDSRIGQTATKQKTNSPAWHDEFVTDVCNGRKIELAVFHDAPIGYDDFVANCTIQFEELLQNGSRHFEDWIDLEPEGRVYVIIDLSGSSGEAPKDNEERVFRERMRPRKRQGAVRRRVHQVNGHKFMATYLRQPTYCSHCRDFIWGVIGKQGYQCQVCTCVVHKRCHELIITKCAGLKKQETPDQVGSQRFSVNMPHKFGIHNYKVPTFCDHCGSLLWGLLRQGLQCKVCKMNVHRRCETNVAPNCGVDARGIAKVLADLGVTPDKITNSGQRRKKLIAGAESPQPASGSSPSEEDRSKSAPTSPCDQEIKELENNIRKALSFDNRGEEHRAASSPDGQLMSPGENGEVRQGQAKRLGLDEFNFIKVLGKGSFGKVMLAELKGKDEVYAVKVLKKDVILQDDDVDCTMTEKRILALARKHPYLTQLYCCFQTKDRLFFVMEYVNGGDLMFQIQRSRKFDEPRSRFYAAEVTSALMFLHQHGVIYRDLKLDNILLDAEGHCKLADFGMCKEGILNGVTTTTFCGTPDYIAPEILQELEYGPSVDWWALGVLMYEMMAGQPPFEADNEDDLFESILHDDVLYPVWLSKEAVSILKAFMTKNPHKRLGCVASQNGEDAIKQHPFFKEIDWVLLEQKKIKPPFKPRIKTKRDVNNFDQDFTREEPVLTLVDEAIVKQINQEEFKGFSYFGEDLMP
The settings on record: cited from earlier work.

The test system of test [3] is lung cancer and HeLa cervical adenocarcinoma cells. The settings on record: formation of membrane ruffles; cited from earlier work.
The next test has as its target PKCδ (Homo sapiens, UniProt Q05655). The settings on record: cited from earlier work.
In test [4] the target is BTK (Ser180) (Homo sapiens, UniProt Q06187+Q13131+Q9Y478). Put plainly: in vitro BTK phosphorylation by AMPK, western blot. The test is classed as biochemical. The settings on record: phospho BTK (Ser180) antibody. As for the experimental part: FIG. 69—In-vitro biochemical validation of BTK phosphorylation by AMPK in the presence of PHICS. Western blot analysis for BTK phosphorylation using 10 μM BTK targeting AMPK-PHICS with different linkers for identification of the optimal molecule for further studies.
Chain of BTK (Ser180) (Homo sapiens, UniProt Q06187+Q13131+Q9Y478) (Q06187 whole entry): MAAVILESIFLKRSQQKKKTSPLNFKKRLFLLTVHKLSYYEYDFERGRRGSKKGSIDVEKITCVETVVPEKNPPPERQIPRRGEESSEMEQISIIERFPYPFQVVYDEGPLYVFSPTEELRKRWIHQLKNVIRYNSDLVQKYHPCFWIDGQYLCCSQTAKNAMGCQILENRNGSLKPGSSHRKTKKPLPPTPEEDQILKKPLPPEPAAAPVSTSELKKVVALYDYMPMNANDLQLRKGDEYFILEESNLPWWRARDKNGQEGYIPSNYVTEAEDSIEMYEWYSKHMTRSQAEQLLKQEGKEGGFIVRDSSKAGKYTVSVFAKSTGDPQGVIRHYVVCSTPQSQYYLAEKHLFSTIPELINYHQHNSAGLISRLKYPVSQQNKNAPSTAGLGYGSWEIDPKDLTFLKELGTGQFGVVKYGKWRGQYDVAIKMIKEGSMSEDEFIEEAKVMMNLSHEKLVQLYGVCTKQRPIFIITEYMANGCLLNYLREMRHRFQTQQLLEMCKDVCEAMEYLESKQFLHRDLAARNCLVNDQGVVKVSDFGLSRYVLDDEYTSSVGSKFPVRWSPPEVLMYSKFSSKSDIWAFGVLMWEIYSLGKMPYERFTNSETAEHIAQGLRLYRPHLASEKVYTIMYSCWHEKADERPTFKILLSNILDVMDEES
Chain of BTK (Ser180) (Homo sapiens, UniProt Q06187+Q13131+Q9Y478) (Q13131 whole entry): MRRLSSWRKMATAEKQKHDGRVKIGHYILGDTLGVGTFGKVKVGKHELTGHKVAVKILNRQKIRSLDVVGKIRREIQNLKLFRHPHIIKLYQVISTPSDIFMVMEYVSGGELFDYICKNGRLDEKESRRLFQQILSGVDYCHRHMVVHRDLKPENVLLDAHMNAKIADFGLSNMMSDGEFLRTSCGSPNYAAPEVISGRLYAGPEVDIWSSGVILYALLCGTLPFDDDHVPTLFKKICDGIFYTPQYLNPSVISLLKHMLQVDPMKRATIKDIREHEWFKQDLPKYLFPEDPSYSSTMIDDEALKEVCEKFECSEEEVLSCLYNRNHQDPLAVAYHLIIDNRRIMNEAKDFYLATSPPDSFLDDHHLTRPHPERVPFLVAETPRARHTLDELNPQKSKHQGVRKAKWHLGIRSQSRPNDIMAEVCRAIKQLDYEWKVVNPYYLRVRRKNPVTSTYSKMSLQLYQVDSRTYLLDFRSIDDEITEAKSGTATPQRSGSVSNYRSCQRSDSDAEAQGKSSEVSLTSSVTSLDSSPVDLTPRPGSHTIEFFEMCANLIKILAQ
Chain of BTK (Ser180) (Homo sapiens, UniProt Q06187+Q13131+Q9Y478) (Q9Y478 whole entry): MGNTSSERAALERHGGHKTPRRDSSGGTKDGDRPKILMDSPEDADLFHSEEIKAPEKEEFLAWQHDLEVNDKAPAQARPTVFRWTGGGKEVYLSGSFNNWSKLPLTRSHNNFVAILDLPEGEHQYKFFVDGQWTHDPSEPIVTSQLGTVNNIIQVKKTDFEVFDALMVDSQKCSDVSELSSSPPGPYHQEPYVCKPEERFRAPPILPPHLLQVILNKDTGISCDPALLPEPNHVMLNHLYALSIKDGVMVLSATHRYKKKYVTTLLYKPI
Chain of BTK (Ser180) (Homo sapiens, UniProt Q06187+Q13131+Q9Y478) (P54619 whole entry partner): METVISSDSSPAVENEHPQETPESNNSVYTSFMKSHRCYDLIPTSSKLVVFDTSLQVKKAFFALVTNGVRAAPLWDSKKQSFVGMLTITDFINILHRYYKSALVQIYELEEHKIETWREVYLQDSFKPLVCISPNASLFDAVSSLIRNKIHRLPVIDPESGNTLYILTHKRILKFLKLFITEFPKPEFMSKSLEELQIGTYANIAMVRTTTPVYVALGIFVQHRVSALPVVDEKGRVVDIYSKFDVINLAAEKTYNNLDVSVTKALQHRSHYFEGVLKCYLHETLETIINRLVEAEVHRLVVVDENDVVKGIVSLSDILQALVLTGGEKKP

In test [5] the test system is AMPK:PHICS3:BTK ternary complex. Put plainly: co-immunoprecipitation of AMPK with BTK-Flag in HEK293T cells. The format is cell-based. The settings on record: HEK293T transfected with BTK-Flag. As for the experimental part:
Co-immunoprecipitation was performed to evaluate the ternary complex (AMPK: PHICS3: BTK) formation in HEK293T cells after overexpressing the BTK, which is otherwise absent in these cells. HEK293T cells were cultured in DMEM supplemented with 10% FBS, penicillin (100 units/mL) and streptomycin (100 μg/mL). Cells were maintained at 37° C. in 5% CO2 humidified atmosphere.
After 36 hrs transfection of pcDNA3.1(+) BTK-Flag plasmid using TransIT®-293 Transfection Reagent, HEK 293T cells were maintained in a serum-free media overnight before incubation with compounds. After that, cells were treated with 5 μM concentration of AMPK activator or BTK binder or PHICS3 or DMSO control for 4 hrs in a fresh serum-free media before cells were lysed on ice in a lysis buffer (M-PER™ Mammalian Protein Extraction Reagent, Halt™ Protease and Phosphatase Inhibitor Cocktail (2×) and 50 mM NaF). Next, the protein concentrations of cell lysates were measured using Pierce™ BCA Protein Assay Kit. Equal amounts of cell lysates were incubated with Anti-FLAG® M2 Magnetic Beads overnight at 4° C. […] Eluted proteins were analyzed by western blotting using AMPK-α rabbit antibody (Cell Signaling, Cat #5832) or Flag mouse antibody (Cell Signaling, Cat #8146) (1:2000) or Beta-actin mouse antibody (Cell Signaling, Cat #3700) (1:2000).

Test [6] concerns the target BTK (Ser180) (Homo sapiens, UniProt Q06187). Put plainly: BTK Ser180 phosphorylation in HEK293T cells, western blot. The format is cell-based.
The target of test [7] is T10, BTK (Ser180) (Homo sapiens, UniProt Q06187, D539N).
T10 construct: expressed in transfected cells; host or cells: HEK293T
T10 sequence (Q06187 2-659 D539N): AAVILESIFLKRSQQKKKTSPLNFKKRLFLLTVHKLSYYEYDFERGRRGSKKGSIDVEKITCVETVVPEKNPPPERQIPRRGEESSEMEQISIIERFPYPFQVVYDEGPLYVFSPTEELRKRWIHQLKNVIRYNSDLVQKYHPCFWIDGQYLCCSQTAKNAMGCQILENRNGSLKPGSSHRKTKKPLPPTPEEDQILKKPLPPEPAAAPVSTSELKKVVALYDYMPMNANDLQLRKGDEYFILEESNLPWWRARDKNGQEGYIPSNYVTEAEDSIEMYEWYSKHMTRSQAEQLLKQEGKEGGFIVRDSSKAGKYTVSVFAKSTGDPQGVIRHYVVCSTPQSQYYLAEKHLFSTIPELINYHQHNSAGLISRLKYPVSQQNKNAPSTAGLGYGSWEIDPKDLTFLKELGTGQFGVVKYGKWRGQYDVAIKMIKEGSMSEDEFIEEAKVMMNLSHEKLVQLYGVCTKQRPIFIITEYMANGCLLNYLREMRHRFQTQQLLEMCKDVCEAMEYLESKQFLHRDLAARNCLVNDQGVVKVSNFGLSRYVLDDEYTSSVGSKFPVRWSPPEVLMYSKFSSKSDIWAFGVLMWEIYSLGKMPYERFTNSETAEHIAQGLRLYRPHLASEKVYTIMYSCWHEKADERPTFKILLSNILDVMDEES
Described as above. The test is classed as cell-based. The settings on record: BTK D539N mutant.

For test [8], the target named is T11, BTK (Ser180) (Homo sapiens, UniProt Q06187, K430R).
T11 construct: expressed in transfected cells; host or cells: HEK293T
T11 sequence (Q06187 2-659 K430R): as the sequence (Q06187 2-659 D539N) above, with K429R, N538D counted along it
The description is as above. The format is cell-based. The settings on record: BTK K430R mutant.

The target in test [9] is T12, BTK (Ser180) (Homo sapiens, UniProt Q06187, S180A).
T12 construct: expressed in transfected cells; host or cells: HEK293T
T12 sequence (Q06187 2-659 S180A): as the sequence (Q06187 2-659 D539N) above, with S179A, N538D counted along it
Described as above. The test is classed as cell-based. The settings on record: BTK-Flag S180A mutant.

Test [10] addresses T13, BTK (Ser180) (Homo sapiens, UniProt Q06187, T474A).
T13 construct: expressed in transfected cells; host or cells: HEK293T
The description is as above. The test is classed as cell-based. The settings on record: BTK T474A mutant.

Chain of BTK (Ser180) (Homo sapiens, UniProt Q06187) (Q06187 2-659): as the sequence (Q06187 2-659 D539N) above, with N538D counted along it
T8 sequence (P00519 whole entry, species assumed, the tested form may be a part): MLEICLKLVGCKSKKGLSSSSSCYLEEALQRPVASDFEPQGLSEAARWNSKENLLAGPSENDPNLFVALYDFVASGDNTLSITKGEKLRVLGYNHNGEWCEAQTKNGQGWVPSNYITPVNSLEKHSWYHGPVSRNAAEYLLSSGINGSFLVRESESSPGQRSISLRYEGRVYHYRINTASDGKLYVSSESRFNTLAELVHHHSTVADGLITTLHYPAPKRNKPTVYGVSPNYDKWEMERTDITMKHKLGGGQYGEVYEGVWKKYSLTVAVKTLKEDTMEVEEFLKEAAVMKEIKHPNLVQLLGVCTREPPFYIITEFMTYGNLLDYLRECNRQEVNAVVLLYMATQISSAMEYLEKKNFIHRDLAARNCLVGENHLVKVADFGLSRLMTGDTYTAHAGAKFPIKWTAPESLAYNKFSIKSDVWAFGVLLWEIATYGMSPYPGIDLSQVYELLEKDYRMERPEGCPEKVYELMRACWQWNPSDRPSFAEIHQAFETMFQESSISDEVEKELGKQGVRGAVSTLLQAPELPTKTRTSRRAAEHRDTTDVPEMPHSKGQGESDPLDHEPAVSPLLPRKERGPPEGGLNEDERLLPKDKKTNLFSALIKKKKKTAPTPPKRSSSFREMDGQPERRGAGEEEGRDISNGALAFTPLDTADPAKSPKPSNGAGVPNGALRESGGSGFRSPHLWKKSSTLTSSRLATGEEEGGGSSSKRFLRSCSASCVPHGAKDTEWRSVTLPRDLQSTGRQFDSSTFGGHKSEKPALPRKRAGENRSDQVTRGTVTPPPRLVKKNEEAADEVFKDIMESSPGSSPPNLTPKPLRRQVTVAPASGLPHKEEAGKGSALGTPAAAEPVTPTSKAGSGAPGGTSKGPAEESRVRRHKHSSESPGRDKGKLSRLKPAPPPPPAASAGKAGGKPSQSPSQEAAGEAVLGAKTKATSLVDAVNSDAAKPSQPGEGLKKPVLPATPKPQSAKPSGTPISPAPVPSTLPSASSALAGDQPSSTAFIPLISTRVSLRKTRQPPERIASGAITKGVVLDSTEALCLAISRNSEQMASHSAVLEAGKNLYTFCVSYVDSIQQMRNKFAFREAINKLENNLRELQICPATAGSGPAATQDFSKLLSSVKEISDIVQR
T13 sequence (Q06187 2-659 T474A): as the sequence (Q06187 2-659 D539N) above, with T473A, N538D counted along it

As for `Cc1sc2c(c1C)C(c1ccc(Cl)cc1)=NC(CC(=O)NCCCCCC(=O)NCc1ccc(COc3ccc4c(c3)N(C)[C@@H](C(C)C)C(=O)N[C@H](CO)C4)cc1)c1nnc(C)n1-2` (some centres unmarked) [PHICS2.3], at BRD4 and PKC (α-isoform), the “ternary complex formation (AlphaScreen), BRD4 and PKC” value is reported as “displayed the bell-shaped curve”. The BRD4 phosphorylation level result at BRD4 (PKCα) is “highest BRD4 phosphorylation”; on BRD4 (PKCβI), “modest phosphorylation”; on BRD4 (PKCβII), “modest phosphorylation”; on BRD4 (PKCγ), “only minor phosphorylation”; at BRD4 (PKCδ), “only minor phosphorylation”. Besides, the “calculated ADP production” value on BRD4 (PKC) is 740 ± 31 nM.
In the case of `O=C1NC(=O)C(c2cn(-c3ccccc3)nc2-c2ccc(F)cc2)N1` (centres unmarked) [DPH, 5-[3-(4-fluorophenyl)-1-phenyl-1H-pyrazol-4-yl]-2,4-imidazolidinedione], the “ABL activation (ADP-Glo)” value at ABL [1] is given as “activated”. The Kd at ABL [2] is 137 nM.
As for `CC(C)CC(C/C=C1\CC(CO)(COC(=O)C(C)(C)C)OC1=O)CC(C)C` (centres unmarked) [AJH-836], the Kd at PKCalpha was 23.6 nM; at PKC beta it was 19.7 nM; on PKC delta it was 1.89 nM; at PKC epsilon, 1.89 nM. Besides, the cytoskeletal reorganization entry in test [3] is “AJH-836 induced major changes in cytoskeletal reorganization in lung cancer and HeLa cervical adenocarcinoma cells as determined by the formation of membrane ruffles”. The PKC isoform selectivity result on PKCδ is “selective for PKCδ and PKC”.
On to `Nc1ncnc2c1c(-c1ccc(Oc3ccccc3)cc1)nn2[C@@H]1CCCN(C(=O)CCCCCCCCC(=O)NCCOc2ccc(-c3cc4c(C(=O)O)c[nH]c4cc3Cl)cc2)C1` [PHICS3], for which, at BTK (Ser180) [4], the “in vitro BTK phosphorylation (linker comparison)” value is on record as “most optimal molecule for phosphorylation; also recorded: optimum”. In test [5], the “ternary complex formation inside the cells (co-immunoprecipitation)” value is given as “co-immunoprecipitation of AMPK with BTK”. Further, the “BTK phosphorylation at Ser180” value was “optimal molecule for phosphorylation; also recorded: able to detect PHICS-mediated BTK phosphorylation at Ser180” at BTK (Ser180) [6] (WT BTK-Flag); “demolished the ability of PHICS3 to induce BTK phosphorylation” at BTK (Ser180) [6] (pre-treatment with covalent BTK binder ibrutinib); “markedly reduced” at BTK (Ser180) [7]; “markedly reduced” on BTK (Ser180) [8]; “phosphorylation was not detected” at BTK (Ser180) [9]; “drastically lowered BTK phosphorylation” on BTK (Ser180) [10].

In general, Kd refers to the free concentration of one partner at which half of the binding sites on the other are occupied at equilibrium, for simple one-to-one binding.

Source of the values: US20230117831A1, “MULTI-FUNCTIONAL CHIMERIC MOLECULES” (THE BROAD INSTITUTE, INC., priority 2020, published 2023).
